Laboratory results reported in patent US20100210555A1, “USE OF A LAMININ PEPTIDE AS A THERAPEUTIC AGENT” (priority 2007, published 2010).
Where no end group is shown, it is not given here.

Assays:
[1] = test system: HCMV strain AD169; test: HCMV plaque formation assay in MRC-5 cells; settings: for inhibition of HCMV plaque formation as compared to the virus control: 10 micrograms per ml, 7-10 days
[2] = test system: hepatitis B virus (HBV) ayw strain; test: HBV experimental assay system (HepG2-2.2.15, TaqMan PCR of secreted HBV DNA); type: cell-based; settings: 10 micrograms per ml; HepG2-2.2.15 cells, six days
From the text: HepG2-2.2.15 is a stable cell line containing the hepatitis B virus (HBV) ayw strain genome (ATCC Cat. No. CRL-11997). Antiviral compounds blocking any late step of viral replication such as transcription, translation, pregenome encapsidation, reverse transcription, particle assembly and release can be identified and characterized using this cell line. In this assay, an active compound will reduce the production of secreted HBV from cells, measured by utilizing real time quantitative PCR (TaqMan) assay to directly and accurately measure HBV DNA copies.
HepG2-2.2.15 cells were plated in 96-well microtiter plates. After 16-24 hours the confluent monolayer of HepG2-2.2.15 cells was washed and the medium was replaced with complete medium containing test peptides—10 micrograms per ml—in duplicate. […] Six days following the initial administration of the peptides, the cell culture supernatants was collected, treated with pronase and DNAse and then used in a real-time quantitative TaqMan PCR assay. The PCR-amplified HBV DNA was detected in real-time by monitoring increases in fluorescence signals that result from the exonucleolytic degradation of a quenched fluorescence probe molecule that hybridizes to the mplified HBV DNA. […] Antiviral activity was calculated from the reduction in HBV DNA levels (% virus control). […]

[3] = test system: spleen cells; test: Th1/Th2 cytokine profiling assay; type: cell-based, Balb/c mice; settings: 10 micrograms per ml; Ovalbumin restimulation, 72 hours
[4] = test system: Primary Human endothelial cells (HUVEC); test: Endothelial cell migration assay; type: cell-based; settings: 10 micrograms per ml, 22 hours, combination peptide 1:peptide 2 0.95 mole: 1.05 mole
[5] = test system: HUVEC; test: Endothelial tube formation assay; type: cell-based, human; settings: 10 micrograms per ml, 20 hours, combination peptide 1:peptide 2 0.95 mole: 1.05 mole
From the text: Positive control was vehicle only.

Row | Compound | antiviral activity of positive control compound (HCMV) ([1]; positive control, HCMV AD169) | inhibition of HBV replication as compared to the virus control infection [2] | IFNγ spleen cells; TH1 response (% of control) [3] | IL-2 spleen cells (% of control) [3] | IL-4 spleen cells; TH2 response (% of control) [3] | IL-5 spleen cells; TH2 response (% of control) [3] | TNF-a spleen cells; TH1 response (% of control) [3] | inhibition of the migration of human endothelial cells [4] [%] | inhibition of the tube formation of endothelial cells [5] [%] | inhibition of HCMV plaque formation as compared to the virus control [1]
1 | Nc1nc(O)c2ncn(COC(CO)CO)c2n1 [Ganciclovir, reference compound] | expected levels of antiviral activity |  |  |  |  |  |  |  |  | 
2 | Pro-His-Pro-Phe-His-Leu-Phe-Val-Tyr-OH (PHPFHLFVY-OH) [peptide 2] |  | no effect | 76.6 % of control | 70.7 % of control | 113.5 % of control | 57.6 % of control | 111.8 % of control | 33 | 27 | did not inhibit
3 | Cys-Ser-Arg-Ala-Arg-Lys-Gln-Ala-Ala-Ser-Ile-Lys-Val-Ala-Val-Ser-Ala-Asp-Arg-OH (CSRARKQAASIKVAVSADR-OH) [peptide 1] |  | 22.1% | 88.8 % of control | 66.8 % of control | 148.8 % of control | 64.5 % of control | 101.0 % of control | 32 | 30 | did not inhibit
